Experimental data from patent US20060020004A1, “Isoxazolidine compounds for treatment of bacterial infections” (Infinity Pharmaceuticals, Inc., priority 2004, published 2006).
≈ marks a conversion by molar mass, not a printed value.

Tests used:
[1] = test system: Methicillin resistant S. aureus ATCC 33591; experiment: MIC determination, MRSA; type: cell-based, Staphylococcus aureus; conditions: MRSA ATCC 33591, 24 h; for MIC: Staphylococcus aureus
Description: (§1) Susceptibility testing for bacterial cultures is performed according to the National Council for Clinical Laboratory Standards (NCCLS) protocol M100-S12, “Performance Standards for Antimicrobial Susceptibility Testing.” The bacterial strains recommended by NCCLS were obtained from the American Type Culutre Collection (ATCC) (Table) and were maintained on Mueller Hinton (MHA) agar plates plus or minus 3% lysed horse blood (see Table). The bacteria were grown in Cation adjusted Mueller Hinton Broth (CaMHB) for liquid growth and susceptibility testing. S. cerevisiae (yeast) is grown in yeast peptone dextrose (YPD) media.
(§2) All bacterial cultures were grown at 37 degrees Celsius. Fresh colonies of S. aureus and MRSA were inoculated into liquid media and grown overnight and diluted the next day to grow to mid-log (Table 2). E. faecalis and S. pneumonia mid-log cultures were started directly from colony on plates. To attain mid-log growth, cultures were grown to an optical density (OD) at A590 of 0.2-0.8 (see Table 2) and then diluted to proper OD to obtain 5×10^5 cells/mL.
(§3) Diluted bacterial cultures are added to compound plates with compound diluted 2-fold from 100 μg/mL to 0.2 μg/mL final concentration in DMSO. Control antibiotics are also added: vancomycin, linezolid, and penicillin. In 384 well plates, 0.5 μL compound is added followed by addition of 50 μL of culture. DMSO alone is included as a control. Plates incubated at 37 degrees Celsius for 17-24 h.
(§4) Plates with cells mixed with compounds are incubated for 17 h for S. aureus and yeast, 24 h for MRSA, and all Enterococcus and Streptococcus strains. Yeast plates are incubated […].
(§5) Viability is determined by reading plates at A590 to determine optical density of treated and untreated cells and determining growth inhibition relative to controls.

[2] = test system: Staphylococcus aureus (Smith) ATCC 19636; experiment: MIC determination, S. aureus; type: cell-based; conditions: S. aureus ATCC 19636, 17 h; for MIC: Staphylococcus aureus, ATCC19636
Description: as §1, §2, §3, §4, §5

[3] = test system: Penicillin-res. S. pneumonia ATCC 700671; experiment: MIC determination, PRSP; type: cell-based, Streptococcus pneumonia; conditions: ATCC 700671, 24 h; for MIC: Streptococcus pneumoniae
Description: as §1, §2, §3, §4, §5

[4] = test system: Streptococcus pneumonia ATCC 49619; experiment: MIC determination, S. pneumonia; type: cell-based; conditions: ATCC 49619, 24 h
Description: as §1, §2, §3, §4, §5

MIC [1] [µg/mL] | MIC [2] [µg/mL] | MIC [3] [µg/mL] | Structure (SMILES) | MIC MRSA [1] | MIC S. aureus [2] | MIC PRSP [3] | MIC S. pneuomiae [4]
 |  |  | CC(O)C1ON(Cc2cccc(C=Cc3ccccc3)c2)C(C(=O)NCCc2c[nH]c3ccccc23)N1CO (stereo not drawn) | ** (the MIC is 5-90 μg/mL) | ** (the MIC is 5-90 μg/mL) | ** (the MIC is 5-90 μg/mL) | 
 |  |  | O=C(NCCc1c[nH]c2ccccc12)C1C(CO)C(CO)ON1Cc1ccc(C#Cc2ccccc2)cc1 (stereo not drawn) | ** (the MIC is 5-90 μg/mL) | ** (the MIC is 5-90 μg/mL) | ** (the MIC is 5-90 μg/mL) | 
 |  |  | CC(O)C1ON(Cc2ccc(-c3ccc(OC4CCCCO4)cc3)cc2)C(C(=O)NCCc2c[nH]c3ccccc23)C1CO (stereo not drawn) | ** (the MIC is 5-90 μg/mL) | ** (the MIC is 5-90 μg/mL) |  | ** (the MIC is 5-90 μg/mL)
 |  |  | Cc1ccc(C#Cc2ccc(CN3OC(C(C)O)C(COC(=O)CN(C)C)C3C(=O)NCCc3c[nH]c4ccccc34)cc2)cc1 (stereo not drawn) | ** (the MIC is 5-90 μg/mL) |  | ** (the MIC is 5-90 μg/mL) | 
 |  |  | Cc1ccc(C#Cc2ccc(CN3OC(CN)CC3C(=O)NCCc3c[nH]c4ccccc34)cc2)cc1 (stereo not drawn) | ** (the MIC is 5-90 μg/mL) | ** (the MIC is 5-90 μg/mL) | ** (the MIC is 5-90 μg/mL) | 
 |  |  | Cc1ccc(C#Cc2ccc(CN3OC(C(C)O)C(CO)C3C(=O)NCCc3c[nH]c4ccccc34)cc2)cc1 (stereo not drawn) [drawing 206] | *** (the MIC is less than 5 μg/mL) | *** (the MIC is less than 5 μg/mL) | ** (the MIC is 5-90 μg/mL) | 
 |  |  | Cc1ccc(C#Cc2ccc(CN3OC(C(C)O)C(CO)C3C(=O)NCCc3c[nH]c4cc(F)ccc34)cc2)cc1 (stereo not drawn) | *** (the MIC is less than 5 μg/mL) | *** (the MIC is less than 5 μg/mL) | ** (the MIC is 5-90 μg/mL) | 
< 5 | < 5 | 5 to 90 (≈ 8.85 to 159 µM) | Cc1ccc(C#Cc2ccc(CN3O[C@@H]([C@@H](C)O)[C@@H](CN(C)C)[C@H]3C(=O)NCCc3c[nH]c4ccccc34)cc2)cc1 |  |  |  | 
 |  |  | Cc1ccc(C#Cc2ccc(CN3OC(CN)CC3C(=O)NCCc3c[nH]c4ccccc34)cc2)cc1.Cl (stereo not drawn) | ** (the MIC is 5-90 μg/mL) | ** (the MIC is 5-90 μg/mL) | ** (the MIC is 5-90 μg/mL) | 
> 90 | > 90 | > 90 | Cc1ccc(C#Cc2ccc(CN3O[C@H]([C@@H](C)O)[C@H](CO)[C@@H]3C(=O)NCCN3CCCC3)cc2)cc1 |  |  |  | 
< 5 | 5 to 90 (≈ 9.55 to 172 µM) |  | Cc1ccc(C#Cc2ccc(CN3O[C@@H]([C@@H](C)O)[C@@H](CO)[C@H]3CNCCc3c[nH]c4ccccc34)cc2)cc1 |  |  |  | 
 |  |  | CC(O)C1ON(Cc2ccc(-c3ccccc3)cc2)C(C(=O)NCCc2c[nH]c3ccccc23)C1CO (stereo not drawn) | ** (the MIC is 5-90 μg/mL) | ** (the MIC is 5-90 μg/mL) | * (the MIC is >90 μg/mL) | 
 |  |  | CC(O)C1ON(Cc2ccc(C#Cc3ccc(C(=O)O)cc3)cc2)C(C(=O)NCCc2c[nH]c3ccccc23)C1CO (stereo not drawn) | * (the MIC is >90 μg/mL) | * (the MIC is >90 μg/mL) | * (the MIC is >90 μg/mL) | 
 |  |  | CC(O)C1ON(Cc2cccc(-c3ccc(C(C)(C)C)cc3)c2)C(C(=O)NCCc2c[nH]c3ccccc23)C1CO (stereo not drawn) | *** (the MIC is less than 5 μg/mL) | *** (the MIC is less than 5 μg/mL) | ** (the MIC is 5-90 μg/mL) | 
 |  |  | CC(O)C1ON(Cc2ccc(C#Cc3cccc(O)c3)cc2)C(C(=O)NCCc2c[nH]c3ccccc23)C1CO (stereo not drawn) | ** (the MIC is 5-90 μg/mL) | ** (the MIC is 5-90 μg/mL) | ** (the MIC is 5-90 μg/mL) | 
 |  |  | CC(O)C1ON(Cc2cccc(C=Cc3ccc(Cl)cc3)c2)C(C(=O)NCCc2c[nH]c3ccccc23)C1CO (stereo not drawn) | *** (the MIC is less than 5 μg/mL) | *** (the MIC is less than 5 μg/mL) | ** (the MIC is 5-90 μg/mL) | 
 |  |  | CC(O)C1ON(Cc2ccc(C=Cc3ccccc3)cc2)C(C(=O)NCCc2c[nH]c3ccccc23)C1CO (stereo not drawn) [drawing 216] | *** (the MIC is less than 5 μg/mL) | *** (the MIC is less than 5 μg/mL) | ** (the MIC is 5-90 μg/mL) | 

Structure (SMILES) | MIC [1] [µg/mL] | MIC [2] [µg/mL] | MIC [3] [µg/mL] | MIC MRSA [1] | MIC S. aureus [2] | MIC PRSP [3] | MIC S. pneuomiae [4]
Cc1ccc(C#Cc2ccc(CN3OC4CNCC4C3C(=O)NCCc3c[nH]c4ccccc34)cc2)cc1.Cl (stereo not drawn) | 5 to 90 | 5 to 90 |  |  |  |  | 
